Results reported in patent US6664372B1, “Azatide peptidomimetics” (The Scripps Research Institute, priority 1996, dated 2003).
Starred links: 1 amine or outer side, 2 acyl side, 3 side chain; linkers in the order of their positions; H or OH if unused. Non-standard residues stand in square brackets, D forms with d. No end group written: not given here. azaTyr = O=C(N(Cc1ccc(O)cc1)N[*:1])[*:2]; azaPhe = O=C(N(Cc1ccccc1)N[*:1])[*:2]; azaLeu = CC(C)CN(N[*:1])C(=O)[*:2]; azaGly = NNC(=O)O

Test system: anti-β-endorphin monoclonal antibody 3-E7 (IgG 3-E7)
Experiment: Azatide (16) competition ELISA for anti-β-endorphin monoclonal antibody
Assay type: binding, mouse
Conditions: at 1 mM, plate coated with Tyr-Gly-Gly-Phe-Leu-BSA conjugate

## Tyr^a-Gly^a-Gly^a-Phe^a-Leu^a.2CP3COOH ([azaTyr][azaGly][azaGly][azaPhe][azaLeu]; also: salt/adduct .2CP3COOH) [compound 16, Leu-enkephalin azatide mimetic; every α-carbon replaced by nitrogen]
  competition with the natural peptide for 3-E7 (competition ELISA): non-ligand
Listed as azatide pentamer
  competition with the natural peptide for 3-E7 (competition ELISA): no propensity to compete
